# Values quoted from earlier work as cited in patent US20080274215A1, “COMPOSITION FOR TREATMENT OF COLD AND FLU” (NORTHERN HOLDINGS INC., priority 2007, published 2008).
smiles,measurement,value
"C=C1CCC2C(C)(CO)C(O)CCC2(C)C1C/C=C1/C(=O)OCC1O (stereo not shown) [AG, 3-[2-[decahydro-6-hydroxy-5-(hydroxymethyl)-5,8a-dimethyl-2-methylene-1-napthalenyl]ethylidene]dihydro-4-hydroxy-2(3H)-furanone]",solubility in water,sparingly soluble
